# Measurements reported in patent US11571459B2, “Methods for treating cancer using PS-targeting antibodies with immuno-oncology agents” (ONCXERNA THERAPEUTICS, INC., priority 2017, dated 2023).
# T1: β2GPI (Homo sapiens, UniProt P02749)
# T1 sequence (P02749 20-345): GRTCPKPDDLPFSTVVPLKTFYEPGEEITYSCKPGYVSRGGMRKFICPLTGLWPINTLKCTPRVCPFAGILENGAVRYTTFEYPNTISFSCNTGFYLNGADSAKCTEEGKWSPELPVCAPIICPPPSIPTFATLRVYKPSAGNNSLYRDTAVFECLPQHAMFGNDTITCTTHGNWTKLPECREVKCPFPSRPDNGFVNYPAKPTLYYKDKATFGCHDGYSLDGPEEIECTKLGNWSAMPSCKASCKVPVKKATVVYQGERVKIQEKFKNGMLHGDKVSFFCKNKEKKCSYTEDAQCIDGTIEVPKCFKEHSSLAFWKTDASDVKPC
# B1: 3G4: mouse IgG3 monoclonal PS-targeting antibody, hybridoma ATCC PTA 4545 (antibody, V domains shown)
# VH: EVQLQQSGPELEKPGASVKLSCKASGYSFTGYNMNWVKQSHGKSLEWIGHIDPYYGDTSYNQKFRGKATLTVDKSSSTAYMQLKSLTSEDSAVYYCVKGGYYGHWYFDVWGAGTTVTVSSATTTAPSVYPLVP
# VL: DIQMTQSPSSLSASLGERVSLTCRASQDIGSSLNWLQQGPDGTIKRLIYATSSLDSGVPKRFSGSRSGSDYSLTISSLESEDFVDYYCLQYVSSPPTFGAGTKLELKRADAAPTVFIFGRIP
# What was measured:
# [1] = tested on: previously treated non-squamous NSCLC
# Method: The primary objective of this study was to compare the ORR (CR+PR) among the treatment arms. Secondary objectives included comparing PFS, DR, OS, safety and PK.
# Additional blood draws were performed for these patients during Cycles 1 and 2 at specified time points.
# Samples from the NSCLC Phase II trial of Example IX (PPHM 0902) were tested using the functional β2GPI assay of Example XII.
# [2] = tested on: previously-treated Stage IIIb/IV non-squamous NSCLC; assay: Phase III trial of bavituximab plus docetaxel in NSCLC
# Description: (§1) This global, double-blind Phase III trial was initiated in 2012. Selection criteria were for patients with Stage IIIb/IV non-squamous NSCLC who progressed on platinum-doublet chemotherapy (should have progressed on appropriate targeted therapy if known EGFR or ALK mutation), with ECOG PS 0-1 and prior immunotherapy allowed (ECOG is the performance status scale defined by the Eastern Cooperative Oncology Group). […] The primary endpoint was overall survival (OS) and secondary endpoints included objective response rate (Independent Central Review, ICR), progression-free survival (ICR), safety, PK, Quality of Life (LCSS) and exploratory biomarkers, including immune correlates.
# (§2) OS was analyzed by VeriStrat subgroups using Kaplan-Meier statistical methods.
# (§3) A single cutoff method was first used to assess the patient β2GPI data.
# (§4) The initial analyses described above prompted further, extensive analyses of the data in 592 evaluable patients. These analyses used a two cutoff method (Klein & Moeschberger, 2003).
# (§5) Archival tissue obtained at the time of diagnosis was requested, but not required, in the Phase III trial of Example X. Formalin-fixed paraffin-embedded (FFPE) slides were stained with antibodies for a panel of lymphoid (or tumor) cell markers, as described in Feng et al., 2015: CD3+, CD8+, FoxP3+, PD-L1+, CD163+ and CK+ (cytokeratin, an epithelial carcinoma marker) using a mutliplex (6-plex) quantitative immunohistochemistry (IHC) assay (OPAL®, PerkinElmer, Waltham, Mass., USA) and using DAPI. The PD-L1 antibody used was the rabbit anti-PD-L1 antibody termed E1L3N® XP® (Cell Signaling Technology, (CST), Danvers, Mass., Catalogue #13684; Mahoney et al., 2015). Baseline PD-L1 expression was retrospectively scored on tumor cells (TC, i.e., CK+) and PD-L1 expressing tumor cells were classified according to their percentage within the total number of tumor cells using established assays and classifications (Fehrenbacher et al., 2016), as follows: TC3≥50%; TC2≥5% and ≤50%; TC1≥1% and <5%; and TC0<1%. Cox regression models for PD-L1 IHC subgroup populations were used for correlation with OS.
# (§6) Kaplan-Meier statistical methods and Cox proportional hazard models were utilized to evaluate and contrast the correlation of peripheral (and intratumoral) IFNγ levels with OS based on a data cut from the Phase III trial (Example X) dated Feb.
# [3] = tested on: previously-treated Stage IIIb/IV non-squamous NSCLC; details: in vivo
# Description: as §1, §2, §3, §4, §5, §6
# β2GPI = target: T1, β2GPI; assay: Antibody binding to β2GPI (domain mapping)
# Description: In summary, it was shown that the 3G4 antibody binds to β2GPI at domain II and that the lipid binding region of β2GPI domain V is required for co-binding of 3G4 (and ch3G4) and β2GPI to PS exposed on cells. […] Accordingly, antibody and β2GPI co-bind to PS exposed on the outer surfaces of membranes, such as occurs on activated endothelial cells, tumor vascular endothelial cells and tumor cells, as well as on virally infected cells.
# [4] = ELISA binding to neutral phospholipids; details: standard ELISA
# PS [5] = assay: ELISA binding to PS-coated plates; details: phospholipid-coated ELISA plates
# Method: The 3G4 antibody was produced by immunizing mice with autologous, PS-positive endothelial cells, as reported in Ran et al., 2005. The 3G4 antibody was tested for binding to PS in a standard ELISA in the presence and absence of serum, and was initially characterized as being “serum-independent”, i.e., an antibody that binds to PS in the absence of serum.
# In a follow-on study, the binding of the 2aG4 antibody to PS was tested in an ELISA in the presence of varying concentrations of human β2GPI.
# These included binding to PS in ELISAs, FACS analyses using PS-positive cells and functional assays in the form of an NFAT surrogate ADCC bioassay (Larson et al., 2013).
# tumors = details: syngeneic and xenogeneic tumor models; cited from earlier work
# [6] = irrespective of the presence of serum; cited from earlier work
# [7] = tested on: ABAE cells with exposed PS; assay: Binding of antibody-β2GPI complexes to PS on cells; format: cell-based; details: first study
# Method: In analyzing the β2GPI levels required for binding of 3G4-β2GPI complexes to PS on cells, the maximum relative binding in a first study occurred at an antibody concentration of 80 nM, which is a β2GPI to antibody ratio of only 0.5.
# PS [8] = details: in the presence of serum; cited from earlier work
# [9] = 70% of targeted OS events reached
# [10] = about 85% of targeted OS events
# [11] = about 85% of targeted OS events, vs docetaxel alone
# [12] = functional β2GPI ≥200 μg/mL, 578 evaluable patients
# [13] = functional β2GPI ≥200 μg/mL, 592 evaluable patients
molecule,measurement,setting,value
bavituximab plus docetaxel: treatment arm: weekly 3 mg/kg bavituximab in combination with docetaxel,HR for OS versus combined arm,[1]; 3 mg/kg,0.66
same,"Overall Survival, Median","[1]; ITT, all with docetaxel, Bavituximab arm 3 mg/kg",11.7 Months
same,Grade 5 (fatal) events,"[1]; bavituximab 3 mg/kg, combined control = placebo or 1 mg/kg bavituximab, all with docetaxel",5.0%
same,median OS,"[2]; 12 months follow-up, about 85% of targeted OS events",10.5 months
same,mOS,[2]; [9],10.7 months
same,median PFS,[2]; [9],4.1 months
same,mOS,"[2]; IFNγ high, no subsequent IO",9.0 months
same,HR,"[2]; IFNγ high, no subsequent IO, vs docetaxel alone",1.14
same,mOS,"[2]; IFNγ high, received subsequent IO",13.9 months
same,HR,"[2]; IFNγ high, received subsequent IO, vs docetaxel alone",1.0
same,mOS,"[2]; IFNγ low, no subsequent IO",10.5 months
same,HR,"[2]; IFNγ low, no subsequent IO, vs docetaxel alone",1.17
same,mOS,"[2]; IFNγ low, received subsequent IO",not reached
same,HR,"[2]; IFNγ low, received subsequent IO, vs docetaxel alone",0.24
same,mOS,[2]; VS Good patients (VeriStrat),11.2 months
same,mOS,[2]; VS Poor patients (VeriStrat),5.8 months
same,ORR,[2]; [10],15%
same,PFS,[2]; [10],4.2 months
same,HR for OS,[2]; [11],1.06
same,HR for PFS,[2]; [11],1.02
same,HR for death,[2]; functional β2GPI 200-240 μg/mL,0.67
same,improvement in mOS versus control group,[2]; functional β2GPI 200-240 μg/mL,5.5 month
same,mOS,[2]; functional β2GPI 200-240 μg/mL,13.2 months
same,HR for death,[2]; [12],0.77
same,mOS,[2]; [12],11.9 months
same,HR for death,[2]; [13],0.81
same,mOS,[2]; [13],11.9 months
same,mOS,"[2]; higher PD-L1 expression (TC1/2/3, ≥1%)",6.0 months
same,"HR, PD-L1 TC0 versus TC1/2/3 within arm",[2]; in vivo,0.38
same,mOS,"[2]; negative PD-L1 expression (TC0, <1%)",11.5 months
same,HR,"[2]; no subsequent IO, vs docetaxel alone",1.16
same,mOS,[2]; patients receiving subsequent IO,has yet to be reached
same,HR,"[2]; patients receiving subsequent IO, vs docetaxel alone",0.46
same,mOS,[2]; patients who did not receive subsequent IO,9.2 months
same,mOS,[2]; pre-treatment serum IFNγ high (≥ median 0.093 μg/mL),9.2 months
same,mOS,[2]; pre-treatment serum IFNγ low (< median 0.093 μg/mL),11.9 months
same,Grade 3 or higher adverse events,[3],68%
B1,β2GPI domain bound,β2GPI,bind to β2GPI at domain II
same,"reaction with neutral phospholipids, PC and SM",[4],did not react
same,binding to phospholipids in standard ELISA,PS [5],"bound to PS, CL, PI (phosphatidylinositol), PA (phosphatidic acid) and PG (phosphatidylglycerol)"
same,anti-tumor effects,tumors,"caused tumor vascular injury, localized thrombosis, tumor necrosis and retarded tumor growth"
same,toxicity,tumors,no evidence of toxicity
same,"binding to neutral phospholipids PC, SM or PE",[6],no detectable binding
same,antibody concentration at maximum relative binding to PS on cells,[7],80 nM
same,molar ratio of β2GPI to antibody for optimal antibody binding,[7],"between 0.125, 0.5 and 2"
same,β2GPI to antibody ratio at maximum relative binding,[7]; antibody 80 nM,0.5
same,"binding to anionic phospholipids (PS, PI, PA, PG, CL)",PS [8],bind strongly to anionic phospholipids
